Test results published in ChEMBL document CHEMBL1201862, “PubChem BioAssay data set” (2004).
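1) Cells in 96-well plates. 2) Compound, 48 h, 5 concentrations. 3) Linear interpolation between surrounding doses. 4) Unreached endpoint = highest concentration. GI50 = concentration required for 50% inhibition of growth.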 Active and inactive are the calls of the source. Cut-off read from the data, not from the text of the source: active = GI50 up to about 1.1 µM and inactive = higher.

Assays:
Experiment in all cases: inhibition of tumour cell growth, NCI panel, 48 h
786-0 = tested on: 786-0
A498 = tested on: A498
A549 = tested on: A549
CAKI-1 = tested on: CAKI-1
CCRF-CEM = tested on: CCRF-CEM
COLO 205 = tested on: COLO 205
DLD-1 = tested on: DLD-1
DMS-114 = tested on: DMS-114
DMS-273 = tested on: DMS-273
EKVX = tested on: EKVX
HCC 2998 = tested on: HCC 2998
HCT-116 = tested on: HCT-116
HL-60 = tested on: HL-60
HOP-62 = tested on: HOP-62
HOP-92 = tested on: HOP-92
HT-29 = tested on: HT-29
IGROV-1 = tested on: IGROV-1
K562 = tested on: K562
KM12 = tested on: KM12
LXFL 529 = tested on: LXFL 529
M14 = tested on: M14
M19-MEL = tested on: M19-MEL
MOLT-4 = tested on: MOLT-4
Malme-3M = tested on: Malme-3M
NCI-H23 = tested on: NCI-H23
NCI-H522 = tested on: NCI-H522
OVCAR-3 = tested on: OVCAR-3
OVCAR-4 = tested on: OVCAR-4
OVCAR-8 = tested on: OVCAR-8
RPMI-8226 = tested on: RPMI-8226
RXF 631 = tested on: RXF 631
SF-268 = tested on: SF-268
SF-295 = tested on: SF-295
SF-539 = tested on: SF-539
SK-MEL-28 = tested on: SK-MEL-28
SK-MEL-2 = tested on: SK-MEL-2
SK-MEL-5 = tested on: SK-MEL-5
SK-OV-3 = tested on: SK-OV-3
SN12C = tested on: SN12C
SNB-19 = tested on: SNB-19
SNB-75 = tested on: SNB-75
SNB-78 = tested on: SNB-78
SR = tested on: SR
SW-620 = tested on: SW-620
TK-10 = tested on: TK-10
UACC-257 = tested on: UACC-257
UACC-62 = tested on: UACC-62
UO-31 = tested on: UO-31
XF498 = tested on: XF498
ACHN = tested on: ACHN
HCT-15 = tested on: HCT-15
HOP-18 = tested on: HOP-18
KM-20L2 = tested on: KM-20L2
LOX IMVI = tested on: LOX IMVI
NCI-H460 = tested on: NCI-H460
OVCAR-5 = tested on: OVCAR-5
RXF 393 = tested on: RXF 393
U-251 = tested on: U-251
NCI-H226 = tested on: NCI-H226

`O=C(c1ccncc1)n1nc(-c2ccccc2)c(/N=N/c2ccccc2[N+](=O)[O-])c1-c1ccccc1` was tested, and the GI50 (786-0) was 76 µM (inactive), the GI50 (A498) was 70.3 µM (inactive) and the GI50 (A549) was 39.4 µM (inactive). The GI50 (CAKI-1) was 63.8 µM (inactive), the GI50 (CCRF-CEM) was 59.3 µM (inactive) and the GI50 (COLO 205) was > 100 µM (inactive). The GI50 (DLD-1) was 49.9 µM (inactive), the GI50 (DMS-114) was 21 µM (inactive) and the GI50 (DMS-273) was > 100 µM (inactive). For the same molecule, the GI50 (EKVX) was 9.04 µM (inactive), the GI50 (HCC 2998) was 34.7 µM (inactive) and the GI50 (HCT-116) was 44.3 µM (inactive). For the same molecule, the GI50 (HL-60) was 46.2 µM (inactive), the GI50 (HOP-62) was 38.3 µM (inactive) and the GI50 (HOP-92) was 35.6 µM (inactive). The GI50 (HT-29) was 26.2 µM (inactive), the GI50 (IGROV-1) was 73.8 µM (inactive) and the GI50 (K562) was 36.3 µM (inactive). The GI50 (KM12) was 19.3 µM (inactive), the GI50 (LXFL 529) was 74.6 µM (inactive) and the GI50 (M14) was > 100 µM (inactive). For the same molecule, the GI50 (M19-MEL) was > 100 µM (inactive), the GI50 (MOLT-4) was 38.9 µM (inactive) and the GI50 (Malme-3M) was > 100 µM (inactive). For the same molecule, the GI50 (NCI-H23) was 30 µM (inactive), the GI50 (NCI-H522) was 56 µM (inactive) and the GI50 (OVCAR-3) was 45 µM (inactive). The GI50 (OVCAR-4) was > 100 µM (inactive), the GI50 (OVCAR-8) was 56.1 µM (inactive) and the GI50 (RPMI-8226) was 28.3 µM (inactive). The GI50 (RXF 631) was 38.5 µM (inactive), the GI50 (SF-268) was 82 µM (inactive) and the GI50 (SF-295) was 32.1 µM (inactive). For the same molecule, the GI50 (SF-539) was 50.8 µM (inactive), the GI50 (SK-MEL-28) was > 100 µM (inactive) and the GI50 (SK-MEL-2) was > 100 µM (inactive). For the same molecule, the GI50 (SK-MEL-5) was 21.6 µM (inactive), the GI50 (SK-OV-3) was > 100 µM (inactive) and the GI50 (SN12C) was > 100 µM (inactive). For the same molecule, the GI50 (SNB-19) was 36.9 µM (inactive), the GI50 (SNB-75) was 15.7 µM (inactive) and the GI50 (SNB-78) was 65.3 µM (inactive). For the same molecule, the GI50 (SR) was 36.6 µM (inactive), the GI50 (SW-620) was 67.3 µM (inactive) and the GI50 (TK-10) was 67.9 µM (inactive). For the same molecule, the GI50 (UACC-257) was 40.8 µM (inactive), the GI50 (UACC-62) was 75.3 µM (inactive) and the GI50 (UO-31) was 9.62 µM (inactive). The GI50 (XF498) was 33.5 µM (inactive).
In the case of `C[N+](C)(C)CC(CC(=O)[O-])C1CC1` (centres undefined), the GI50 (786-0) is reported as > 100 µM (inactive), the GI50 (A498) is reported as > 100 µM (inactive) and the GI50 (A549) is reported as > 100 µM (inactive). The GI50 (ACHN) was > 100 µM (inactive), the GI50 (CAKI-1) was > 100 µM (inactive) and the GI50 (CCRF-CEM) was > 100 µM (inactive). The GI50 (COLO 205) was > 100 µM (inactive), the GI50 (DMS-114) was > 100 µM (inactive) and the GI50 (DMS-273) was > 100 µM (inactive). The GI50 (EKVX) was > 100 µM (inactive), the GI50 (HCT-15) was > 100 µM and the GI50 (HL-60) was > 100 µM (inactive). For the same molecule, the GI50 (HOP-18) was > 100 µM (inactive), the GI50 (HOP-62) was > 100 µM (inactive) and the GI50 (HOP-92) was > 100 µM (inactive). The GI50 (HT-29) was > 100 µM (inactive), the GI50 (IGROV-1) was > 100 µM (inactive) and the GI50 (K562) was > 100 µM (inactive). The GI50 (KM-20L2) was > 100 µM (inactive), the GI50 (KM12) was > 100 µM (inactive) and the GI50 (LOX IMVI) was > 100 µM (inactive). For the same molecule, the GI50 (LXFL 529) was > 100 µM (inactive), the GI50 (M14) was > 100 µM (inactive) and the GI50 (M19-MEL) was > 100 µM (inactive). For the same molecule, the GI50 (MOLT-4) was > 100 µM (inactive), the GI50 (Malme-3M) was > 100 µM (inactive) and the GI50 (NCI-H23) was > 100 µM (inactive). The GI50 (NCI-H460) was > 100 µM (inactive), the GI50 (NCI-H522) was > 100 µM (inactive) and the GI50 (OVCAR-3) was > 100 µM (inactive). For the same molecule, the GI50 (OVCAR-4) was > 100 µM (inactive), the GI50 (OVCAR-5) was > 100 µM (inactive) and the GI50 (OVCAR-8) was > 100 µM (inactive). For the same molecule, the GI50 (RPMI-8226) was > 100 µM (inactive), the GI50 (RXF 393) was > 100 µM (inactive) and the GI50 (RXF 631) was > 100 µM (inactive). The GI50 (SF-268) was > 100 µM (inactive), the GI50 (SF-295) was > 100 µM (inactive) and the GI50 (SF-539) was > 100 µM (inactive). The GI50 (SK-MEL-28) was > 100 µM (inactive), the GI50 (SK-MEL-2) was > 100 µM (inactive) and the GI50 (SK-MEL-5) was > 100 µM (inactive). For the same molecule, the GI50 (SK-OV-3) was > 100 µM (inactive), the GI50 (SN12C) was > 100 µM (inactive) and the GI50 (SNB-19) was > 100 µM (inactive). For the same molecule, the GI50 (SNB-75) was > 100 µM (inactive), the GI50 (SW-620) was > 100 µM (inactive) and the GI50 (TK-10) was > 100 µM (inactive). The GI50 (U-251) was > 100 µM (inactive), the GI50 (UACC-257) was > 100 µM (inactive) and the GI50 (UACC-62) was > 100 µM (inactive). For the same molecule, the GI50 (UO-31) was > 100 µM (inactive) and the GI50 (XF498) was > 100 µM (inactive).
`S=C(Nc1ccccc1)Nc1[nH]c(=S)sc1-c1nc2ccccc2[nH]1` was tested, and the GI50 (786-0) was 34.2 µM (inactive), the GI50 (A498) was > 100 µM (inactive) and the GI50 (A549) was 65.6 µM (inactive). For the same molecule, the GI50 (ACHN) was 72.4 µM (inactive), the GI50 (CAKI-1) was 94 µM (inactive) and the GI50 (CCRF-CEM) was > 100 µM (inactive). For the same molecule, the GI50 (COLO 205) was > 100 µM (inactive), the GI50 (DLD-1) was 76.9 µM (inactive) and the GI50 (DMS-273) was 37.8 µM (inactive). The GI50 (EKVX) was 75.9 µM (inactive), the GI50 (HCC 2998) was > 100 µM (inactive) and the GI50 (HCT-15) was 98.2 µM. The GI50 (HL-60) was > 100 µM (inactive), the GI50 (HOP-18) was > 100 µM (inactive) and the GI50 (HOP-62) was 23.1 µM (inactive). For the same molecule, the GI50 (HT-29) was > 100 µM (inactive), the GI50 (IGROV-1) was 94.2 µM (inactive) and the GI50 (K562) was > 100 µM (inactive). For the same molecule, the GI50 (KM12) was > 100 µM (inactive), the GI50 (LOX IMVI) was 61.4 µM (inactive) and the GI50 (LXFL 529) was 29.6 µM (inactive). For the same molecule, the GI50 (M14) was 49.8 µM (inactive), the GI50 (M19-MEL) was > 100 µM (inactive) and the GI50 (MOLT-4) was > 100 µM (inactive). For the same molecule, the GI50 (Malme-3M) was 43 µM (inactive), the GI50 (NCI-H226) was 12.2 µM (inactive) and the GI50 (NCI-H23) was > 100 µM (inactive). The GI50 (NCI-H522) was 62.4 µM (inactive), the GI50 (OVCAR-3) was 30.6 µM (inactive) and the GI50 (OVCAR-4) was 15.2 µM (inactive). The GI50 (OVCAR-5) was > 100 µM (inactive), the GI50 (OVCAR-8) was 48.8 µM (inactive) and the GI50 (RPMI-8226) was 97.3 µM (inactive). For the same molecule, the GI50 (RXF 393) was > 100 µM (inactive), the GI50 (RXF 631) was 65.6 µM (inactive) and the GI50 (SF-268) was 48.9 µM (inactive). The GI50 (SF-295) was 41.9 µM (inactive), the GI50 (SF-539) was 28.6 µM (inactive) and the GI50 (SK-MEL-28) was 73.5 µM (inactive). The GI50 (SK-MEL-2) was 38.4 µM (inactive), the GI50 (SK-MEL-5) was 28.8 µM (inactive) and the GI50 (SK-OV-3) was 37.9 µM (inactive). For the same molecule, the GI50 (SN12C) was > 100 µM (inactive), the GI50 (SNB-19) was 36.9 µM (inactive) and the GI50 (SNB-75) was 38.5 µM (inactive). For the same molecule, the GI50 (SNB-78) was 36.1 µM (inactive), the GI50 (SW-620) was > 100 µM (inactive) and the GI50 (TK-10) was 40.1 µM (inactive). The GI50 (U-251) was 80 µM (inactive), the GI50 (UACC-257) was > 100 µM (inactive) and the GI50 (UACC-62) was 57.9 µM (inactive). For the same molecule, the GI50 (UO-31) was > 100 µM (inactive).
